Target: T1, Hup (histone-like DNA-binding protein of H. pylori) (Helicobacter pylori, UniProt O25506)
T1 sequence (O25506 1-94): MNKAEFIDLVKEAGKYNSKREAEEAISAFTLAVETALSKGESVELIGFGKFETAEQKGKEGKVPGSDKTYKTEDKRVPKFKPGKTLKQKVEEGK
Assay: ligand-observed 1H NMR titration

## O=C(O[C@@H]1Cc2c(O)cc(O)cc2O[C@@H]1c1cc(O)c(O)c(O)c1)c1cc(O)c(O)c(O)c1 [EGCG]
  Kd: 3.29 ± 0.42 µM

— PMC7876696 (ACS Omega, 2021)
